Experimental data taken from patent publication US8884101B2, “Method of gene introduction into Triticum plant using Agrobacterium, and a method of producing transformed Triticum plant” (priority 2009, dated 2014).

Tested on: immature embryos of bread wheat (variety: Fielder)
Test: GUS gene expression in wheat immature embryos; effect of adding plant hormone to coculture medium (Example 9)
Format: cell-based, bread wheat (Triticum aestivum)
Settings: 5 days resting culture; for degree of GUS gene expression relative to coculture medium not containing plant hormones (FIG. 5): 0.5 μM in coculture medium, 10 immature embryos per group; for degree of GUS gene expression relative to coculture medium not containing plant hormones (FIG. 6) / degree of GUS gene expression relative to coculture medium not containing plant hormones (FIG. 4): 5 μM in coculture medium; for degree of GUS gene expression relative to coculture medium not containing plant hormones (FIG. 6): 18 or 19 immature embryos per group; for degree of GUS gene expression relative to coculture medium not containing plant hormones (FIG. 4): 16 or 17 immature embryos per group
Procedure: Bread wheat (variety: Fielder) was cultivated in a greenhouse equipped with an air conditioner, and the immature embryos (size: 1.5 to 3.0 mm) of the bread wheat were aseptically collected on the 14th day after flowering and were washed once with an Inf liquid medium. Pretreatment (centrifugation at 15000 rpm for 10 min) was performed to enhance the efficiency of gene introduction in an Inf liquid medium. Agrobacterium strain EHA101 (pIG121Hm) was suspended at about 1.0×10^9 cfu/mL in an Inf liquid medium containing 100 μM acetosyringone to prepare an inoculation source. The inoculation source was added to the immature embryos, and the mixture was stirred for 30 sec, followed by leaving to stand at room temperature for 5 min. The immature embryos inoculated with Agrobacterium were placed onto a Co-Cul coculture medium containing 100 μM acetosyringone, 5 μM AgNO3, and 5 μM CuSO4 and also containing 5 μM kinetin or 4PU; 0.5 μM 2,4-D, dicamba, or picloram; or 5 μM 2,4-D, dicamba, or picloram in such a manner that the scutellum faced upward, and were cocultured at 23° C. in the dark. As a control, a Co-Cul coculture medium not containing any plant hormone was used.
On the 2nd day from the beginning of the coculture, the radicles, germs, and embryonic axes were excised using a scalpel and tweezers. The immature embryos were placed onto a resting medium (the composition is the same as that described in Example 1), followed by cultivation at 25° C. in the dark for 5 days. Subsequently, 10 to 19 immature embryos were collected from each group and were immersed in a 0.1 M phosphate buffer (pH 6.8) containing 0.1% Triton X-100 at 37° C. for 1 hr. The phosphate buffer was removed, and a phosphate buffer containing 1.0 mM 5-bromo-4-chloro-3-indolyl-β-D-glucuronic acid (X-gluc) and 20% methanol was added thereto. After treatment at 37° C. for 24 hr, the immature embryos in each group were evaluated for expression of the GUS gene in six grades: 4 (expressed in 75% or more of scutellum), 3 (expressed in 50% to 74% of scutellum), 2 (expressed in 25% to 49% of scutellum), 1 (expressed in 5% to 24% of scutellum), 0.5 (expressed in 1% to 4% of scutellum), and 0 (no expression).
A part of the immature embryos in each test group was harvested on the 5th day of the resting culture, and the GUS gene was expressed. The vertical axis in each of FIGS. 4, 5, and 6 represents the average of GUS gene expression by each immature embryo evaluated in six grades: 4 (expressed in 75% or more of scutellum), 3 (expressed in 50% to 74% of scutellum), 2 (expressed in 25% to 49% of scutellum), 1 (expressed in 5% to 24% of scutellum), 0.5 (expressed in 1% to 4% of scutellum), and 0 (no expression), that is, efficiency of gene introduction shown by expression of the GUS gene.

Row | Structure (SMILES) | degree of GUS gene expression relative to coculture medium not containing plant hormones (FIG. 5) | degree of GUS gene expression relative to coculture medium not containing plant hormones (FIG. 6) | degree of GUS gene expression relative to coculture medium not containing plant hormones (FIG. 4)
1 | O=C(O)COc1ccc(Cl)cc1Cl [2,4-D, 2,4-dichlorophenoxyacetic acid] | equivalent to or slightly lower | slightly lower | 
2 | O=C(Nc1ccccc1)Nc1ccncc1 [4PU] |  |  | slightly lower
3 | COc1c(Cl)ccc(Cl)c1C(=O)O [dicamba] | equivalent to or slightly lower | slightly lower | 
4 | c1coc(CNc2ncnc3[nH]cnc23)c1 [kinetin] |  |  | slightly lower
5 | Nc1c(Cl)c(Cl)nc(C(=O)O)c1Cl [picloram] | equivalent to or slightly lower | slightly lower | 
